Results taken from patent publication US11725015B2, “Macrocyclic compound and uses thereof” (President and Fellows of Harvard College, priority 2017, dated 2023).

Assays:
[1] = system: KPL-4 subcutaneous xenograft; assay: Antitumor effects in the KPL-4 xenograft model in mice as monotherapy; format: in vivo
Protocol: A human HER-2 positive breast cancer cell line KPL-4, which had been cultured in a DMEM containing 10% FBS, and penicillin-streptomycin, was adjusted to a concentration of 1×10^8 cells/mL with Hanks' Balanced Salt Solution to prepare a cell suspension. The cell suspension was inoculated in a volume of 100 μL into a subcutaneous part of a right flank of nude mice, 8 weeks of ages (CAnN.Cg-Foxnlnu/CrlCrlj, female, Charles River Laboratories Japan Inc.). Eleven days after cell inoculation (Day 1), the shortest diameter and the longest diameter of a tumor in each mouse were measured by using an electronic digital caliper (Digimatic™ caliper, Mitutoyo Corporation), so as to calculate the volume of the tumor in accordance with the following calculation formulae: Tumor volume (mm^3)=Longest diameter (mm)×Shortest diameter (mm)×Shortest diameter (mm)/2 Relative tumor volume (RTV)=Tumor volume (day X)/Tumor volume (the first day) Relative body weight (RBW)=Body weight (day X)/Body weight (the first day)
On the basis of the volumes of tumors obtained on Day 1, the mice were grouped such that averages of the tumor volumes were substantially equal among the groups. The experiment was conducted on groups each consisting of six mice. The test compound was dissolved in DMSO and a solution was stored in the freezer before use. Immediately before the administration, the stock solution was diluted with saline. The test compound in saline was intravenously once-weekly administered at 20 μg/kg, 60 μg/kg, or 180 μg/kg for 2 weeks (on Day 1 and Day 8).

[2] = system: CTG-2041 (human angiosarcoma) tumor fragments; assay: Antitumor effects in CTG-2041 soft tissue sarcoma xenograft model in mice as monotherapy; format: in vivo; conditions: 100 μg/kg intravenously on Day 1 and Day 8
Text: Tumor fragments of human angiosarcoma CTG-2041 were implanted s.c. in the left flank of female mice. Tumor growth was monitored twice a week using digital caliper, so as to calculate the volume of the tumor in accordance with the following calculation formula: Tumor volume (mm^3)=Longest diameter (mm)×Shortest diameter (mm)×Shortest diameter (mm)/2 Relative tumor volume (RTV)=Tumor volume (day X)/Tumor volume (the first day)
When the volume of tumors reached approximately 200 mm^3, animals are matched by tumor volume into treatment or control groups and dosing initiated on Day 1. Each group was consisted with five mice. Compound (1) was dissolved in DMSO and a solution was stored in the freezer before use. Compound (1) (100 μg/kg) diluted in saline and intravenously injected on Day 1 and Day 8.

[3] = system: OE33 (human adenocarcinoma of the esophagus); assay: In vitro antiproliferative activity, OE33; format: cell-based; conditions: OE33, 72 hours
Protocol: (§1) The in vitro antiproliferative assays for Compound (1) were conducted using a small panel of cancer cell lines including human squamous cell carcinoma of the esophagus (OE21, TE-8), human adenocarcinoma of the esophagus (OE33), and human uterine sarcoma (MES-SA, MES-SA-Dx5-Rx1). All cell lines were cultured in RPMI-1640 medium containing 10% FBS, and penicillin-streptomycin (culture medium), in a 5% CO2 incubator (37° C.). To each well of a 96 well plate (Becton, Dickinson and Company, 353219), 75 μL of cell suspension adjusted to a concentration of 4×10^4 cells/mL with the culture medium was added, and the cells were incubated overnight in a 5% CO2 incubator (37° C.). On the next day, 25 μL of Compound (1) in three-fold dilution series suspended in the culture medium was added to each well, and the resultant was incubated for 72 hours in a 5% CO2 incubator (37° C.). Then, cell viability was determined by CellTiter-Glo® Luminescent Cell Viability Assay (Promega) with 2013 EnVision™ Multilabel Reader (Perkin-Elmer, Wellesley, Mass.). Value of the wells containing cells without adding the test compounds was defined as 100% and the value of the wells containing no cells was defined as 0%. […] The P-gp susceptibility was calculated as the ratio of the IC50 value in MES-SA-Dx5-Rx1 cells, which overexpress P-gp, to the IC50 value in MES-SA cells.

[4] = system: TE-8 (human squamous cell carcinoma of the esophagus); assay: In vitro antiproliferative activity, TE-8; format: cell-based; conditions: TE-8, 72 hours
Protocol: as §1

[5] = system: FaDu-Luc subcutaneous xenograft; assay: FaDu s.c. xenograft model in combination with radiation; format: in vivo, mice
Protocol: Luciferase-transduced FaDu-Luc cells were established by retrovirus-mediated gene transfer. […]. Then, helper-free recombinant retroviruses were produced by transfecting the above retroviral expression vector together with pGP and pE-Ampho plasmids (Takara Bio; Shiga, Japan), into 293T cells (ATCC; Manassas, USA). Next, FaDu cells were infected with the recombinant retroviruses, and were cultured for two weeks in the presence of puromycin (2 μg/mL). The infected cells were selected from a polyclonal proliferative population of the culture.
A luciferase-transduced human SCCHN cell line FaDu-Luc, which had been cultured in an RPMI-1640 medium containing 10% FBS, and penicillin and streptomycin, was adjusted to a concentration of 5×10^7 cells/mL with Hank's Balanced Salt Solution to prepare a cell suspension. The cell suspension was inoculated in a volume of 100 μL into a subcutaneous part of a right thigh of nude mice, 6 weeks of ages (CAnN.Cg-Foxnlnu/CrlCrlj, female, Charles River Laboratories Japan, Inc.). Thirteen days after the cell inoculation, the tumor volume was analyzed using bioluminescence signal from FaDu-Luc cells. […] The bioluminescence signal was monitored using the IVIS […] series (PerkinElmer, Waltham, Mass.), consisting of a highly sensitive, cooled chargecoupled device camera. […] Data were analyzed using total photon flux emission (photons/second) in the ROIs. […]

## C=C1C[C@@H]2CC[C@@]34C[C@H]5O[C@H]6[C@@H](O3)[C@H]3O[C@H](CC[C@@H]3O[C@H]6C5O4)CC(=O)O[C@@H]3[C@@H](C)[C@@H]4O[C@@H]5C[C@]6(C[C@@H]7O[C@]8(C[C@H](C)[C@@H]9O[C@H](CN)[C@H](O)C[C@@H]9O8)C[C@H](C)[C@@H]7O6)O[C@@H]5C[C@@H]4O[C@H]3C[C@H]3O[C@@H](CC[C@@H]1O2)C[C@@H](C)C3=C [Compound (1)]
[1]; 60 μg/kg intravenously on Day 1 and Day 8
  antitumor effect: tumor regression was observed
[1]; 180 μg/kg intravenously on Day 1 and Day 8
  antitumor effect: tumor regression was observed
[1]; 180 μg/kg, on Day 15
  eradication of xenograft tumors: completely eradicated the xenograft tumors in all mice
[2]
  antitumor activity: tumor regression
[3]
  antiproliferative activity: potent antiproliferative agent
[4]
  antiproliferative activity: potent antiproliferative agent
[5]; 0.09 mg/kg on day 1 and 8 + radiation 18 Gy on day 4 and day 11
  Tumor Regression (%): 97%
[5]; 0.09 mg/kg on day 1 and 8, without radiation
  Tumor Regression (%): 0%
